Experimental data taken from ChEMBL document CHEMBL4800731, “Data for DCP probe JNJ-65355394” (2021).
Calls of active or inactive are those of the source. The calls are words filed in the database; no cut-off is given here.

How the values were obtained:
[1] = molecular target: 5-hydroxytryptamine receptor 2C (Homo sapiens) (UniProt P28335); conditions: Compound concentration 10.0 uM
[2] = molecular target: Alpha-1A adrenergic receptor (Rattus norvegicus) (UniProt P43140); assay: rAa1 Cerep panel
[3] = molecular target: T1, GABA-A receptor; anion channel (Rattus norvegicus) (UniProt O09028+P15431+P18506+P18508+P19969+P20236+P23574+P23576+P28471+P28473+P30191+P62813+P63079+P63138+Q91ZM7+Q9ES14); conditions: Compound concentration 10.0 uM
[4] = molecular target: T2, Sodium-dependent serotonin transporter (Homo sapiens, UniProt P31645); conditions: Compound concentration 10.0 uM
T2 sequence (P31645 whole entry, looked up): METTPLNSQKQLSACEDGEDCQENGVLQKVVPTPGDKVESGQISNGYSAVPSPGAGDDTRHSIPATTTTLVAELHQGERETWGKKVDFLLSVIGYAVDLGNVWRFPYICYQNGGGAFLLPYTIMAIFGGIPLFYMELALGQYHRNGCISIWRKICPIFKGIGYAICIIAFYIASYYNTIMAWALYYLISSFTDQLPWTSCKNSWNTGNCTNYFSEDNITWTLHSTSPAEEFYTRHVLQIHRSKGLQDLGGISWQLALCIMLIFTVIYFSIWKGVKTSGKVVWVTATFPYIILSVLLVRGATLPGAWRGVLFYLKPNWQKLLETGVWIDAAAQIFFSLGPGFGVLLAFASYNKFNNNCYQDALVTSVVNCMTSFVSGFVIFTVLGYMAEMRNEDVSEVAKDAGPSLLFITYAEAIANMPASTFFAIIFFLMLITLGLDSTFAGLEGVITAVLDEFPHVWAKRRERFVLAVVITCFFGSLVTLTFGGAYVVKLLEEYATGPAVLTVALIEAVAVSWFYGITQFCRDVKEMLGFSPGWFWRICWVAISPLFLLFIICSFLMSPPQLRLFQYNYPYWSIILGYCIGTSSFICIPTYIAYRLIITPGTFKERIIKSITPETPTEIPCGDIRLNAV

[5] = molecular target: 5-hydroxytryptamine receptor 1B (Homo sapiens) (UniProt P28222); conditions: Compound concentration 10.0 uM
Sequence of 5-hydroxytryptamine receptor 1B (Homo sapiens) (P28222 whole entry): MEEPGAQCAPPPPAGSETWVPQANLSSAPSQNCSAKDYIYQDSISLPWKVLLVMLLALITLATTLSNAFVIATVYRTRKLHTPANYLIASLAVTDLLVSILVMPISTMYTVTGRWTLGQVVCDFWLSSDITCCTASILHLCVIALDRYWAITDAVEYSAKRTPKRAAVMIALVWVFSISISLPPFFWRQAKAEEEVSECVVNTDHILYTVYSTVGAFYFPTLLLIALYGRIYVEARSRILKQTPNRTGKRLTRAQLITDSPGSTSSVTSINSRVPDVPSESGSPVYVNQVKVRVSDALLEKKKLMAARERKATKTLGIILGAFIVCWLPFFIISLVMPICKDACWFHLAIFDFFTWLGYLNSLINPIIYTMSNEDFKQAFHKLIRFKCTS

[6] = molecular target: Alpha-2C adrenergic receptor (Homo sapiens) (UniProt P18825); conditions: Compound concentration 10.0 uM
Sequence of Alpha-2C adrenergic receptor (Homo sapiens) (P18825 whole entry): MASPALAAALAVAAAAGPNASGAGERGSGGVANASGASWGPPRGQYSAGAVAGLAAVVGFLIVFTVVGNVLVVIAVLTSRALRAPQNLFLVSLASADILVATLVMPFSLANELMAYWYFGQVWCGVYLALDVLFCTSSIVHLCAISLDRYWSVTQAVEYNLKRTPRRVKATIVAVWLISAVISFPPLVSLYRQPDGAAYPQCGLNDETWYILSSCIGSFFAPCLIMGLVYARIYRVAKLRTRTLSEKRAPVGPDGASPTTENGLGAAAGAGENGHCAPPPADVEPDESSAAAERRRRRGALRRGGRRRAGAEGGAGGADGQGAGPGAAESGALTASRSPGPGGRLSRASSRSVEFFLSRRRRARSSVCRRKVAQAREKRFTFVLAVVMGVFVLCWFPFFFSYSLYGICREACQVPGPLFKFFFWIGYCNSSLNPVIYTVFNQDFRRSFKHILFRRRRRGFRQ

[7] = species: Rattus norvegicus; assay: rBZD Cerep panel
[8] = molecular target: T3, Protein O-GlcNAcase (Homo sapiens, UniProt O60502); assay: Fluorescence-based enzymatic assay
T3 sequence (O60502 whole entry): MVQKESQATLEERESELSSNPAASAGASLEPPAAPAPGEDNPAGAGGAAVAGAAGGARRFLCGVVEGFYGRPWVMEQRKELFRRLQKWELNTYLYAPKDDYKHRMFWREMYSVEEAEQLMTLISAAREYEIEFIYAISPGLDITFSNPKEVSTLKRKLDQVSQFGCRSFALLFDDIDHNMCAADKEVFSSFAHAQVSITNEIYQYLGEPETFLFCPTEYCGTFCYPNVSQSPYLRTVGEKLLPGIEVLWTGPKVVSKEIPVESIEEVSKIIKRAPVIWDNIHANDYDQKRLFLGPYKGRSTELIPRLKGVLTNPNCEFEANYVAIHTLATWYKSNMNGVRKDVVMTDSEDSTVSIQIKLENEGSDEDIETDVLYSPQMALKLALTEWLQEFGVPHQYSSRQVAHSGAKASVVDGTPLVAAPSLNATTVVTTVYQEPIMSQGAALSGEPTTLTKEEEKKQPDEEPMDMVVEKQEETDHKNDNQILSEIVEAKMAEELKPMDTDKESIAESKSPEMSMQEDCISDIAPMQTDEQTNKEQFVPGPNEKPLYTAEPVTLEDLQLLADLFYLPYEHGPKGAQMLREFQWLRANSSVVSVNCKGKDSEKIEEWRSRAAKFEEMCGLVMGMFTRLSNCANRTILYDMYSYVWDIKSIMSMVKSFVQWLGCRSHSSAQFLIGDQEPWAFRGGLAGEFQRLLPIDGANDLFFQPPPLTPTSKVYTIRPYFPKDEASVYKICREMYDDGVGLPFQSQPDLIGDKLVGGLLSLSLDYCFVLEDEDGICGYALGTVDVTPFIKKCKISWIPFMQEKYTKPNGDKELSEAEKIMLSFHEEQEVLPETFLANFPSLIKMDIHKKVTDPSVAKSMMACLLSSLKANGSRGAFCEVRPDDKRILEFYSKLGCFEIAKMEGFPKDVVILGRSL

[9] = molecular target: Beta-1 adrenergic receptor (Homo sapiens) (UniProt P08588); conditions: Compound concentration 10.0 uM
Sequence of Beta-1 adrenergic receptor (Homo sapiens) (P08588 whole entry, looked up): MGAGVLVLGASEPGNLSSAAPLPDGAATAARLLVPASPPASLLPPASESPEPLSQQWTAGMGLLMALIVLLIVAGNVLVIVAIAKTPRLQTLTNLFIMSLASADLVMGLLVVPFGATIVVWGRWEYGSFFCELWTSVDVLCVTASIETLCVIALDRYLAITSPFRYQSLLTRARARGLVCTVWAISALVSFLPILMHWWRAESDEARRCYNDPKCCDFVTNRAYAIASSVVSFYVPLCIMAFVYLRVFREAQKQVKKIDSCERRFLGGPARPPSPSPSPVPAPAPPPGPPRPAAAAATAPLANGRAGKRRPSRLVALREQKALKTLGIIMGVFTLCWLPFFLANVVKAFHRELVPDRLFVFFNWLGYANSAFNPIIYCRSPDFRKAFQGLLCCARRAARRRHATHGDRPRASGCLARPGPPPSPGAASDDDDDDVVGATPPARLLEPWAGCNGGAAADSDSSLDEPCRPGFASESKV

[10] = molecular target: T4, Muscarinic acetylcholine receptor M1 (Homo sapiens) (UniProt P11229); conditions: Compound concentration 10.0 uM
T4 sequence (whole entry): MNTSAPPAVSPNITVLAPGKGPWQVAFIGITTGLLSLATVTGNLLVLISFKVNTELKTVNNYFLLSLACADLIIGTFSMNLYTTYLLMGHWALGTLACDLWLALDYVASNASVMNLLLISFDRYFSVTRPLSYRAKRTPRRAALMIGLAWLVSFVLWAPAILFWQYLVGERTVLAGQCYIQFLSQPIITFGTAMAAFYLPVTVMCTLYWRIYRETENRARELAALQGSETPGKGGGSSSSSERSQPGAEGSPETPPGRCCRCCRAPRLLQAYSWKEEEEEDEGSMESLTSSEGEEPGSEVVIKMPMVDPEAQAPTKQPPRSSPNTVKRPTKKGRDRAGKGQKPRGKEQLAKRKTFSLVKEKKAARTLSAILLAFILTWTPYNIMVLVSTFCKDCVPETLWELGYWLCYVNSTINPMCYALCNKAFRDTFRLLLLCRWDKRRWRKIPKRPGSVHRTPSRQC

[11] = molecular target: 5-hydroxytryptamine receptor 2B (Homo sapiens) (UniProt P41595); assay: h5HT2B Cerep panel
[12] = molecular target: Muscarinic acetylcholine receptor M3 (Homo sapiens) (UniProt P20309); conditions: Compound concentration 10.0 uM
[13] = molecular target: D(2) dopamine receptor (Homo sapiens) (UniProt P14416); conditions: Compound concentration 10.0 uM
Sequence of D(2) dopamine receptor (Homo sapiens) (P14416 whole entry): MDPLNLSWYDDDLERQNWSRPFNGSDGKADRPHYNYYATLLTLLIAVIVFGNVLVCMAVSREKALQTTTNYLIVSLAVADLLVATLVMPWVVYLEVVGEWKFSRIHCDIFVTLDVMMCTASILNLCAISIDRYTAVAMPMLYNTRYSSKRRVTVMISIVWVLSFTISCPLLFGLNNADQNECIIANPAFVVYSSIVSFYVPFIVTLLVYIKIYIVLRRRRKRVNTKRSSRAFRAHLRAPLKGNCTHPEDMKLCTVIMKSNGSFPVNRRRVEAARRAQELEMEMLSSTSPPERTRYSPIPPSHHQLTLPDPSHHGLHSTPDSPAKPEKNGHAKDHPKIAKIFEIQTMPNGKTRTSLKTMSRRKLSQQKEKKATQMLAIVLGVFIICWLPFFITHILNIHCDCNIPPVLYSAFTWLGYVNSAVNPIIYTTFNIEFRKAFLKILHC

[14] = molecular target: T2, Sodium-dependent serotonin transporter; assay: h5HTT Cerep panel
[15] = molecular target: C-C chemokine receptor type 1 (Homo sapiens) (UniProt P32246); assay: hCCR1 Cerep panel
[16] = molecular target: Sodium-dependent noradrenaline transporter (Homo sapiens) (UniProt P23975); conditions: Compound concentration 10.0 uM
Sequence of Sodium-dependent noradrenaline transporter (Homo sapiens) (P23975 whole entry): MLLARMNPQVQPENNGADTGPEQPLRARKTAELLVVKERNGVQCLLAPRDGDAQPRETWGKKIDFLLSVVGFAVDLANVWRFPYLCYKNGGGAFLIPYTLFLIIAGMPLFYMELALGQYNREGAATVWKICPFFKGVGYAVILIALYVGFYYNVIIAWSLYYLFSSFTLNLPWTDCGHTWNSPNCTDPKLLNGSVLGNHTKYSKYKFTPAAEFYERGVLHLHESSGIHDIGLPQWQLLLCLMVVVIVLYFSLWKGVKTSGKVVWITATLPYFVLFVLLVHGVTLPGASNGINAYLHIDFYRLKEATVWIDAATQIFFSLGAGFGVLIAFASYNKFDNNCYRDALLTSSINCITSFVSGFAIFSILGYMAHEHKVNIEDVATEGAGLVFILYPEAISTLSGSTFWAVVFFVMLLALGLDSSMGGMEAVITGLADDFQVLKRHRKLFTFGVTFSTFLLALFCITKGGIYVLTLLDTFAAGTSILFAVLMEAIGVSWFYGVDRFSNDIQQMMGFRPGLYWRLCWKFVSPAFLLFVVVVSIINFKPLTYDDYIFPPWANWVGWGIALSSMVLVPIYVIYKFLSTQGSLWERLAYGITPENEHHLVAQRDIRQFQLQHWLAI

[17] = molecular target: Melanocortin receptor 4 (Homo sapiens) (UniProt P32245); assay: hMC4 Cerep panel
[18] = molecular target: 5-hydroxytryptamine receptor 5A (Homo sapiens) (UniProt P47898); conditions: Compound concentration 10.0 uM
Sequence of 5-hydroxytryptamine receptor 5A (Homo sapiens) (P47898 whole entry): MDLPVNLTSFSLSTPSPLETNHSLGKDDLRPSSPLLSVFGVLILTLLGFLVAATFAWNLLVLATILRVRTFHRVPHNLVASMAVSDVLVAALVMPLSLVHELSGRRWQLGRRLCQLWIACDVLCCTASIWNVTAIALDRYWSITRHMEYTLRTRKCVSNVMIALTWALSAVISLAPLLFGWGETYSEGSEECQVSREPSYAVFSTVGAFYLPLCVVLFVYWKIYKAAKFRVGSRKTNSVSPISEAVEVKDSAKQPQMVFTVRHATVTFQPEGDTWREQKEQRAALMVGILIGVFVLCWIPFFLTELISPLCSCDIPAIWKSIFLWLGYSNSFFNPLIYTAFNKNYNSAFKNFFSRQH

[19] = molecular target: Type-1 angiotensin II receptor (Homo sapiens) (UniProt P30556); assay: hAT1 Cerep panel
[20] = molecular target: Neurotensin receptor type 1 (Homo sapiens) (UniProt P30989); assay: hNT1 Cerep panel
[21] = molecular target: T1, GABA-A receptor; anion channel (Rattus norvegicus); conditions: Compound concentration 10.0 uM; remark: listed apart in the source
[22] = molecular target: Alpha-1A adrenergic receptor (Homo sapiens) (UniProt P35348); conditions: Compound concentration 10.0 uM
Sequence of Alpha-1A adrenergic receptor (Homo sapiens) (P35348 whole entry): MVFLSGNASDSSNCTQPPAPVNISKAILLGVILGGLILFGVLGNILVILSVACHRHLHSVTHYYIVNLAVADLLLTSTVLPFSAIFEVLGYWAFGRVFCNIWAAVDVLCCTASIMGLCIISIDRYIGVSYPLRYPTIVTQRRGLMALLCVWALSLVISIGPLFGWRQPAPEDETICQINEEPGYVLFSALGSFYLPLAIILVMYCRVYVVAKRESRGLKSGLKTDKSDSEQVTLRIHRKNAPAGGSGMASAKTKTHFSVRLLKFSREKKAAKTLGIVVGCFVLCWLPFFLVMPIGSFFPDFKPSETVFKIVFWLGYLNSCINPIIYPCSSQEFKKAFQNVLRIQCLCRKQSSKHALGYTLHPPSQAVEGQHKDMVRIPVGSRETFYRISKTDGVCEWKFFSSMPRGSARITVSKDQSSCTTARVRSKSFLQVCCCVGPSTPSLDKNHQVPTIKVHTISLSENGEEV

[23] = molecular target: 5-hydroxytryptamine receptor 5A (Homo sapiens) (UniProt P47898); assay: h5HT5A Cerep panel
[24] = molecular target: Beta-2 adrenergic receptor (Homo sapiens) (UniProt P07550); conditions: Compound concentration 10.0 uM
[25] = molecular target: Mu-type opioid receptor (Homo sapiens) (UniProt P35372); conditions: Compound concentration 10.0 uM
Sequence of Mu-type opioid receptor (Homo sapiens) (P35372 whole entry): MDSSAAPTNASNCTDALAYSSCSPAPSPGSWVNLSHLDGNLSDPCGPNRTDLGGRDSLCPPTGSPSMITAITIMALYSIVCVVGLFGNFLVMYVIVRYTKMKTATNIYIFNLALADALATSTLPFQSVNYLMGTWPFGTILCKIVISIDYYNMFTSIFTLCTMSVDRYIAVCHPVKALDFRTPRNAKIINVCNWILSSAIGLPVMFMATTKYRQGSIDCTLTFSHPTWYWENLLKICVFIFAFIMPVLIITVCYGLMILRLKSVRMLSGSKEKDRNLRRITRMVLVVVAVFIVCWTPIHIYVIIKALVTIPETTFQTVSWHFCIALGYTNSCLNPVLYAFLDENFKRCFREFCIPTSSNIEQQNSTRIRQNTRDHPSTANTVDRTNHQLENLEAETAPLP

[26] = species: Rattus norvegicus; assay: rCLCH Cerep panel
[27] = molecular target: D(4) dopamine receptor (Homo sapiens) (UniProt P21917); conditions: Compound concentration 10.0 uM
[28] = molecular target: Muscarinic acetylcholine receptor M5 (Homo sapiens) (UniProt P08912); conditions: Compound concentration 10.0 uM

Sequence of 5-hydroxytryptamine receptor 2C (Homo sapiens) (P28335 whole entry): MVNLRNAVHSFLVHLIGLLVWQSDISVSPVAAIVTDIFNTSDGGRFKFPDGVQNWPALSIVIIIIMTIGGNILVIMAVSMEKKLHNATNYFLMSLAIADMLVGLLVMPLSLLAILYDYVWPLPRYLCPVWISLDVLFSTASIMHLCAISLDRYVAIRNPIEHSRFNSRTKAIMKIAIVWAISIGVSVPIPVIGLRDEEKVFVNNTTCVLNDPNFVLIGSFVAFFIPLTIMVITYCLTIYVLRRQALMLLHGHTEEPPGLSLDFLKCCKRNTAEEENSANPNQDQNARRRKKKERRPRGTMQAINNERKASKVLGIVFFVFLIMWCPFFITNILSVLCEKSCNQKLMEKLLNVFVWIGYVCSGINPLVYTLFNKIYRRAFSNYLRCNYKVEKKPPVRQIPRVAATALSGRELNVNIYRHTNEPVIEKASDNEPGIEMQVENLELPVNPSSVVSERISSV

| inhibition [1] [%] | inhibition [3] [%] | inhibition [4] [%] | inhibition [5] [%] | inhibition [6] [%] | IC50 [8] | inhibition [9] [%] | inhibition [10] [%] | inhibition [12] [%] | inhibition [13] [%] | inhibition [16] [%] | inhibition [18] [%] | inhibition [21] [%] | inhibition [22] [%] | inhibition [24] [%] | inhibition [25] [%] | inhibition [27] [%] | SMILES | also measured |
| --- | --- | --- | --- | --- | --- | --- | --- | --- | --- | --- | --- | --- | --- | --- | --- | --- | --- | --- |
| 15.2 | 8.07 | 7.21 | -2.53 | 31.9 | 0.0013 µM (active) | 3.29 | 6.18 | 8.4 | 0.63 | 12.7 | 18.7 | -8.39 | 2.36 | -5.16 | 12.8 | 3.53 | CC(=O)Nc1ncc(CN2CCC[C@H](Cc3cc(C)nc(C)c3)C2)s1 [JNJ-65355394] | effect [2]: 19.5%; effect [7]: -16.6%; effect [11]: 6.3%; effect [14]: -7.05%; effect [15]: -1.85%; effect [17]: 1.3%; effect [19]: -3.05%; effect [20]: 4.15%; effect [23]: -7.65%; effect [26]: -5.7% |
| 16.3 | 43.5 | 52.3 | 4.01 | 36.5 | > 10 µM (not active) | 4.41 | 25.4 | -9.98 | 8.04 | 17.8 | 17.8 | 43.6 | -1.89 | -8.1 | 27.3 | 6.82 | CC(=O)Nc1nc(CN2CCC[C@H](Cc3cc(C)nc(C)c3)C2)cs1 [JNJ-73924149] | inhibition [28]: -6.15% |
